From patent US20100234400A1, “COMPOUNDS THAT MAINTAIN PLURIPOTENCY OF EMBRYONIC STEM CELLS” (IRM LLC, priority 2005, published 2010)

What follows are compounds tested on Mouse embryonic stem cells (assay: Mouse ES cells keep pluripotency under differentiation medium (DM)). Details: Embryonic stem cell, 144 h, measured by maintenance of GFP expression and colony morphology, differentiation medium (BM+0.3 μM RA or DMEM, 20% FBS), 3 + 3 days incubation.
Format: cell-based
Source text: Materials used for ES cell maintenance, and examples 4 & 5, infra, include: Oct4-GFP mES cells (feeder layer dependent cells); mES R1 cells (feeder layer independent cells); DMEM (GIBCO, 11965-084); Kouckout DMEM (KO DMEM) (GIBCO, 10829-018); DMEM/F12 (GIBCO, 11330-032); Fetal Bovine Serum (FBS) (GIBCO, 26140-079); Knockout Serum Replacer (KO-SR), (GIBCO, 10828-028); B-27 Serum-free Supplement (50X), (GIBCO017504-044); N-2 Supplement (100X) (GIBCO, 17502-048); LIF (10^6 units) (Chemicon, ESG1106); L-Glutamine (GIBCO, 25030-081); Non-essential amino acids (GIBCO, 11140-050); 2-Mercaptoethanol (1000X), (GIBCO, 21985-023); 0.05% Trypsin-EDTA (GIBCO, 25300-054); 0.1% gelatin solution (Stemcell tech., 07903); Basal medium (BM): KO DMEM, 15% KO-SR, 1X L-glutamine, 1X non-essential amino acid, 1×2-mercaptoethanol; and Growth medium (GM): Basal medium+10^3 unit LIF.
DM induced by retinoic acid (RA): BM+0.3 μM RA, DM induced by FBS: DMEM, 20% FBS. Ninety-six well plates are coated with 0.1% gelatin solution at 37° C. overnight. The gelatin solution is removed by aspiration. Mouse embryonic stem cells are plated on gelatin-coated plates at 10^4 cells/50 μl GM/well. After overnight incubation, the medium is changed to DM and 3 μM of a compound of the invention is added to each well. After 3 days incubation, the medium is replaced with fresh medium and compound. After a further 3 days, the cells are fixed and assayed with pluripotent markers expression and colony morphology. An effective concentration is measured by the maintenance of GFP expression and colony morphology. A list of effective concentrations for various compounds of the invention is disclosed in table 3, infra
`CNc1ncc2c(n1)N(C)C(=O)N(c1cc(NC(=O)c3cccc(C(F)(F)F)c3)ccc1C)C2` [N-[4-Methyl-3-(1-methyl-7-methylamino-2-oxo-1,4-dihydro-2H-pyrimido[4,5-d]pyrimidin-3-yl)-phenyl]-3-trifluoromethyl-benzamide] gave a minimal effective concentration of 3 µM. With `Cc1cc(Nc2ncc3c(n2)N(C)C(=O)N(c2cc(NC(=O)c4cccc(C(F)(F)F)c4)ccc2C)C3)cc(C)n1` [N-{3-[7-(2,6-Dimethyl-pyridin-4-ylamino)-1-methyl-2-oxo-1,4-dihydro-2H-pyrimido[4,5-d]pyrimidin-3-yl]-4-methyl-phenyl}-3-trifluoromethyl-benzamide] the minimal effective concentration was 5 µM. Compound `Cc1ccc(NC(=O)c2cccc(C(F)(F)F)c2)cc1N1Cc2cnc(Nc3cccc(O)c3)nc2N(C)C1=O` [N-{3-[7-(3-Hydroxy-phenylamino)-1-methyl-2-oxo-1,4-dihydro-2H-pyrimido[4,5-d]pyrimidin-3-yl]-4-methyl-phenyl}-3-trifluoromethyl-benzamide] has a minimal effective concentration of 1 µM. With `Cc1ccc(NC(=O)c2cccc(C(F)(F)F)c2)cc1N1Cc2cnc(Nc3cccc(N)c3)nc2N(C)C1=O` [N-{3-[7-(3-Amino-phenylamino)-1-methyl-2-oxo-1,4-dihydro-2H-pyrimido[4,5-d]pyrimidin-3-yl]-4-methyl-phenyl}-3-trifluoromethyl-benzamide] the minimal effective concentration was 2 µM. `Cc1cc(Nc2ncc3c(n2)N(C)C(=O)N(c2cc(NC(=O)c4cccc(C(F)(F)F)c4)ccc2C)C3)n(C)n1` [N-{3-[7-(2,5-Dimethyl-2H-pyrazol-3-ylamino)-1-methyl-2-oxo-1,4-dihydro-2H-pyrimido[4,5-d]pyrimidin-3-yl]-4-methyl-phenyl}-3-trifluoromethyl-benzamide] gave a minimal effective concentration of 1 µM. For `Cc1ccc(NC(=O)c2cccc(C(F)(F)F)c2)cc1N1Cc2cnc(Nc3cccc(NS(C)(=O)=O)c3)nc2N(C)C1=O` [N-{3-[7-(3-Methanesulfonylamino-phenylamino)-1-methyl-2-oxo-1,4-dihydro-2H-pyrimido[4,5-d]pyrimidin-3-yl]-4-methyl-phenyl}-3-trifluoromethyl-benzamide], the minimal effective concentration was 2 µM. `CCn1nccc1Nc1ncc2c(n1)N(C)C(=O)N(c1cc(NC(=O)c3cccc(C(F)(F)F)c3)ccc1C)C2` [N-{3-[7-(2-Ethyl-2H-pyrazol-3-ylamino)-1-methyl-2-oxo-1,4-dihydro-2H-pyrimido[4,5-d]pyrimidin-3-yl]-4-methyl-phenyl}-3-trifluoromethyl-benzamide] was tested, and the minimal effective concentration was 2 µM. `CCNc1ncc2c(n1)N(C)C(=O)N(c1cc(NC(=O)c3cccc(C(F)(F)F)c3)ccc1C)C2` [N-[3-(7-Ethylamino-1-methyl-2-oxo-1,4-dihydro-2H-pyrimido[4,5-d]pyrimidin-3-yl)-4-methyl-phenyl]-3-trifluoromethyl-benzamide] was tested, and the minimal effective concentration was 10 µM. With `Cc1ccc(NC(=O)c2cccc(C(F)(F)F)c2)cc1N1Cc2cnc(Nc3ccnn3C)nc2N(C)C1=O` [N-{4-Methyl-3-[1-methyl-7-(2-methyl-2H-pyrazol-3-ylamino)-2-oxo-1,4-dihydro-2H-pyrimido[4,5-d]pyrimidin-3-yl]-phenyl}-3-trifluoromethyl-benzamide] the minimal effective concentration was 1 µM.
